Earlier results in US20060280700A1, “Oral hygiene system to fight the effects of aging on the mouth, gums, and teeth” (priority 2005, published 2006).

Assays:
[1] = test system: oral squamous carcinoma cells; settings: for inhibition in growth of oral squamous carcinoma cells: in culture
Streptococcus mutants = settings: rodent model inoculated with Streptococcus mutants

Molecule	inhibition of DNA synthesis [1]	inhibition in growth of oral squamous carcinoma cells [1]	inhibition of the activity of Pophyromonas proteinases (Pophyromonas proteinases)	cariogenic action (Streptococcus mutants)
Oc1cc(O)c2c(c1)O[C@H](c1cc(O)c(O)c(O)c1)[C@H](O)C2 [EGC, (−) epigauocatechin]	dose-dependent inhibition	significant dose dependent inhibition		
(−)-gallocatechin gallate			significantly inhibited	
O=C(O[C@@H]1Cc2c(O)cc(O)cc2O[C@H]1c1ccc(O)c(O)c1)c1cc(O)c(O)c(O)c1 [(−)-catechin gallate]			significantly inhibited	
O=C(O[C@@H]1Cc2c(O)cc(O)cc2O[C@@H]1c1cc(O)c(O)c(O)c1)c1cc(O)c(O)c(O)c1 [EGCG, (−)-epigallocatechin-3-gallate]	dose-dependent inhibition	significant dose dependent inhibition	significantly inhibited	
(−)-epicatechin-3-gallate [ECG]	dose-dependent inhibition	significant dose dependent inhibition	significantly inhibited	
OC[C@@H](O)[C@H](O)[C@@H](O)CO [Xylitol]				little or no cariogenic action
